Results on one compound are retold here after patent publication US20180128815A1, “METHOD OF SCREENING AN AGENT FOR INHIBITING RECURRENCE OR METASTASIS OF BREAST CANCER” (GACHON UNIVERSITY OF INDUSTRY-ACADEMIC COOPERATION …, priority 2014, published 2018).

Common to all, as to format: cell-based
The subject of assay [1] is 4T1 murine breast cancer cell line (suspending culture, cancer stem cells). The assay can be described thus: RTQ-PCR of stem cell marker genes in suspension-cultured 4T1 cells with or without Wnt signaling inhibitor. The conditions noted are these: 1 μM applied 4 times, once in two days, 8 days suspending culture. As for the experimental part: Then, the 4T1 murine breast cancer cell line was added with a DMEM medium containing 20 ng/mL of EGF, 20 ng/mL of bFGF, 4 μg/mL of heparin, and B27, and cultured via suspending culture at 37° C. with […] for 7 days to obtain a culture product in a spherical form.
First, 4T1 murine breast cancer cell line was cultured via the suspending culturing method in the same manner as in Example 1-1 for 8 days under the condition of with or without the treatment of the Wnt signaling inhibitor (CWP232228, JW Pharmaceutical, Korea). In particular, the Wnt signaling inhibitor was applied a total of 4 times once in two days at a concentration of 1 μM.
Then, the thus obtained culture products were subjected to RNeasy Plus Mini Kit (Qiagen Inc, Valencia, Calif.) and the total RNA was extracted from each of the culture products. The thus-extracted each of the total RNA was subjected to random hexamer and ReverAid H Minus First Strand cDNA Synthesis Kit (Thermo scientific) to synthesize their respective cDNAs. […] The data obtained via RTQ-PCR was analyzed and, based on the 2-deltadelta ct values among the respective cells cultured, the genes with at least a 2-fold difference and a P value<0.05 were selected. […]

The subject of assay [2] is 4T1 murine breast cancer cell line. The assay can be described thus: IGF1 immunofluorescence staining, 4T1 cells with or without Wnt signaling inhibitor. As for the experimental part: (§1) In order to confirm the expression level of IGF1 gene, one of the five genes discovered above, within a cell, the 4T1 murine breast cancer cell line and MCF7 human breast cancer cell line were cultured via adhesion culture method and suspending culture method in the same manner as in Example 1 under the condition of with or without the treatment of the Wnt signaling inhibitor (CWP232228, JW Pharmaceutical, Korea) and thereby obtained the respective culture products.
(§2) The thus obtained respective culture products were added with mouse anti-IGF1 antibodies (Milipore, cat. #05-172) to perform a primary reaction, and then added with anti-mouse IgG antibodies (Invitrogen cat.A11001) to perform a secondary reaction, thereby performing an immunofluorescence staining regarding the IGF1 gene, which was observed under an optical microscope (Zeiss LSM 510) and the expression level of IGF1 was measured (FIG. 3).

Assay [3] has as its system MCF7 human breast cancer cell line. The assay can be described thus: IGF1 immunofluorescence staining, MCF7 cells with or without Wnt signaling inhibitor. How it is done:
as §1, §2

Where [4] appears, read: adhesion culture, regardless of treatment.
Setting [5] is: suspending culture (cancer stem cells).

Turning to `C=CCN1CC(=O)N2[C@@H](Cc3ccc(OP(=O)([O-])[O-])cc3)C(=O)N(Cc3cccc4cn(C)nc34)C[C@@H]2N1C(=O)NCc1ccccc1.[Na+].[Na+]` [CWP232228], the “difference in expression of IGF1, Id2, MMP2, MMP9 and Wnt5a genes (2-deltadelta ct, Stem cell PCR array) treated vs untreated” value in assay [1] (P value<0.05) was no less than 2 fold. Moreover, in assay [1] (treated vs untreated), the “expression of IGF1, Id2, MMP2, MMP9 and Wnt5a genes by RTQ-PCR with specific primers (FIG. 2)” value is reported as “significant difference in their expression”. Moreover, the “IGF1 gene expression (immunofluorescence, FIG. 3)” value in assay [2] (setting [4]) and in assay [3] (setting [4]) was “not expressed” in each case. Moreover, the “level of IGF1 gene expression (immunofluorescence, FIG. 3)” value in assay [2] (setting [5]) and in assay [3] (setting [5]) was “deceased” throughout.
